Read-outs that look alike come from different tables or passages of the source. *1 amine or outer side, *2 acyl side, *3 side chain or, on linkers, in order; H or OH if unused. Where a SMILES comes first, the peptide text is derived from it. Side-chain parts run from the residue outwards. [ ]: non-standard residue; d: D form. The star is where a group is joined. αMePhe(2-F) = C[C@](N)(Cc1ccccc1F)C(=O)O; γGlu = O=C(O)[C@H](CCC(=O)[*:2])N[*:1]; C14 diacid = O=C(O)CCCCCCCCCCCCC(=O)*; αMeY = C[C@](N)(Cc1ccc(O)cc1)C(=O)O; 4Pal = N[C@@H](Cc1ccncc1)C(=O)O; αMeL = CC(C)C[C@](C)(N)C(=O)O; Orn = NCCC[C@H](N)C(=O)O; AEEA = NCCOCCOCC(=O)O; Aib = CC(C)(N)C(=O)O
Columns and labels:
Type in all cases: cell-based
hGCGR = biological target: T1, hGCGR (Homo sapiens, UniProt P47871); test: Functional cAMP formation (HTRF) in HEK-293 clonal cells expressing hGCGR, 0.1% bovine casein, without or with 1.0% human serum albumin; conditions: geometric mean
T1 construct: expressed in transfected cells
Method in brief: (§1)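 Cells were stimulated with peptide for 30 min at 37° C, then lysed in buffer carrying cAMP-d2 and anti-cAMP Eu3+-cryptate for a competitive HTRF read after at least 60 min at room temperature. The 665/620 nm ratio was converted to nM cAMP against a standard curve.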

hGLP-1R = hGLP-1R (Homo sapiens, UniProt P43220); test: Functional cAMP formation (HTRF) in HEK-293 clonal cells expressing hGLP-1R, 0.1% bovine casein, without or with 1.0% human serum albumin; design: expressed in transfected cells; conditions: for EC50: geometric mean
Method in brief: as §1

hGIPR = biological target: T2, hGIPR (Homo sapiens, UniProt P48546); test: Functional cAMP formation (HTRF) in HEK-293 clonal cells expressing hGIPR, 0.1% bovine casein, without or with 1.0% human serum albumin; conditions: for EC50: geometric mean
T2 construct: expressed in transfected cells
T2 sequence (P48546 22-466): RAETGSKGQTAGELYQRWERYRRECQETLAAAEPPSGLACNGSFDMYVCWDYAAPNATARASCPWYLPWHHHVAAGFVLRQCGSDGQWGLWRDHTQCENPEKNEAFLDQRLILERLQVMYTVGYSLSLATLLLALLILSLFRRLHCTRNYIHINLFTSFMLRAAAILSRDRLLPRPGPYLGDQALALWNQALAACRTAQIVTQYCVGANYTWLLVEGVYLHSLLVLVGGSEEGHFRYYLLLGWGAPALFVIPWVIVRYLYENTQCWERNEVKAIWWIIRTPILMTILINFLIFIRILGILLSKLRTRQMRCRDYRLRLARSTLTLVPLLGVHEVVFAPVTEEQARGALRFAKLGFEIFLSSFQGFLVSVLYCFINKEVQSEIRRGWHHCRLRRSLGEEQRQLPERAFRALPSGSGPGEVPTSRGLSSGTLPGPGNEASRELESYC
Method in brief: as §1

[1] = 0.1% bovine casein and 1.0% human serum albumin, 37° C., read-out: hGCGR EC50, nM (SEM, n)
[2] = cAMP, incubated at 37° C., 0.1% bovine casein (no human serum albumin), read-out: hGCGR EC50, nM (SEM, n)
[3] = HEK293, 0.1% bovine casein and 1.0% human serum albumin, 37° C., percent of maximal response to GLP-1(7-36)NH2, read-out: hGLP-1R Emax, % ± SEM
[4] = HEK293, percent of maximal response to GLP-1(7-36)NH2, 37° C., 0.1% bovine casein, arithmetic mean, read-out: hGLP-1R Emax, % ± SEM
[5] = cAMP, incubated at 37° C., 0.1% bovine casein (no human serum albumin), read-out: hGLP-1R EC50, nM (SEM, n)
[6] = 0.1% bovine casein and 1.0% human serum albumin, 37° C., read-out: hGIPR EC50, nM (SEM, n)
[7] = HEK293, 0.1% bovine casein and 1.0% human serum albumin, 37° C., percent of maximal response to GIP(1-42)NH2, read-out: hGIPR Emax, % ± SEM
[8] = HEK293, percent of maximal response to GIP(1-42)NH2, 37° C., 0.1% bovine casein, arithmetic mean, read-out: hGIPR Emax, % ± SEM
[9] = cAMP, incubated at 37° C., 0.1% bovine casein (no human serum albumin), read-out: hGIPR EC50, nM (SEM, n)
[10] = 0.1% bovine casein and 1.0% human serum albumin, 37° C., read-out: hGLP-1R EC50, nM (SEM, n)

Chain of hGLP-1R (P43220 24-463): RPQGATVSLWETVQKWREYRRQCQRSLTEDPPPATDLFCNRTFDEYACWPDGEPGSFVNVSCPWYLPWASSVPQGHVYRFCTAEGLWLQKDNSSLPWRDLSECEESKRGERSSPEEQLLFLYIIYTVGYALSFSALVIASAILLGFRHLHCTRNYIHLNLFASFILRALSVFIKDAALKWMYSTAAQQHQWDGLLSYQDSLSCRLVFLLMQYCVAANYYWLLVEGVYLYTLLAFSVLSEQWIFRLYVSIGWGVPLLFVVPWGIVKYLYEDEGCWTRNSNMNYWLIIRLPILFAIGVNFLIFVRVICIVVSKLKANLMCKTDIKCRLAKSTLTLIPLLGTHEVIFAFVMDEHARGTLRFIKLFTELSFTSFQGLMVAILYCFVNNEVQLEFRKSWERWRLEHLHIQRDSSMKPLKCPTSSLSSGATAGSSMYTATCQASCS
T1 sequence (P47871 26-477): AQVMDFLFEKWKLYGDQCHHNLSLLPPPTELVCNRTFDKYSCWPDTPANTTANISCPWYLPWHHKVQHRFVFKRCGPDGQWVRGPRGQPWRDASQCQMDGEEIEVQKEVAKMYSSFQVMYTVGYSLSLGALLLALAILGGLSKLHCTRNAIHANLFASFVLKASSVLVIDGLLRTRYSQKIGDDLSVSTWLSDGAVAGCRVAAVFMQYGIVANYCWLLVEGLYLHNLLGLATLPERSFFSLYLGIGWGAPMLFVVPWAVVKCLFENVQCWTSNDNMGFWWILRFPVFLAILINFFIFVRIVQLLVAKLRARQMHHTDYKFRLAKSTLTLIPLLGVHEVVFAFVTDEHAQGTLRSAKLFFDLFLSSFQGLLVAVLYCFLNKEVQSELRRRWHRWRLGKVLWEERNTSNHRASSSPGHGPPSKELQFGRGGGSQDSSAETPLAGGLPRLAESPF

SMILES	EC50 (hGCGR; [1]) [nM]	EC50 (hGCGR; [2]) [nM]	Emax (hGLP-1R; [3]) [%]	Emax (hGLP-1R; [4]) [%]	EC50 (hGLP-1R; [5]) [nM]	EC50 (hGIPR; [6]) [nM]	Emax (hGIPR; [7]) [%]	Emax (hGIPR; [8]) [%]	EC50 (hGIPR; [9]) [nM]	EC50 (hGCGR; hGCGR EC50, nM (SEM, n), 0.1% bovine casein and 1.0% human serum albumin, 37° C.) [nM]	EC50 (hGCGR; hGCGR EC50, nM (SEM, n), cAMP, incubated at 37° C., 0.1% bovine casein (no human serum albumin)) [nM]	Emax (hGLP-1R; HEK293, read-out: hGLP-1R Emax, % ± SEM, 0.1% bovine casein and 1.0% human serum albumin, 37° C., percent of maximal response to GLP-1(7-36)NH2) [%]	Emax (hGLP-1R; HEK293, read-out: hGLP-1R Emax, % ± SEM, percent of maximal response to GLP-1(7-36)NH2, 37° C., 0.1% bovine casein, arithmetic mean) [%]	EC50 (hGLP-1R; hGLP-1R EC50, nM (SEM, n), 0.1% bovine casein and 1.0% human serum albumin, 37° C.) [nM]	EC50 (hGLP-1R; hGLP-1R EC50, nM (SEM, n), cAMP, incubated at 37° C., 0.1% bovine casein (no human serum albumin)) [nM]	Emax (hGIPR; HEK293, read-out: hGIPR Emax, % ± SEM, 0.1% bovine casein and 1.0% human serum albumin, 37° C., percent of maximal response to GIP(1-42)NH2) [%]	Emax (hGIPR; HEK293, read-out: hGIPR Emax, % ± SEM, percent of maximal response to GIP(1-42)NH2, 37° C., 0.1% bovine casein, arithmetic mean) [%]	EC50 (hGIPR; hGIPR EC50, nM (SEM, n), 0.1% bovine casein and 1.0% human serum albumin, 37° C.) [nM]	EC50 (hGIPR; hGIPR EC50, nM (SEM, n), cAMP, incubated at 37° C., 0.1% bovine casein (no human serum albumin)) [nM]	EC50 (hGLP-1R; [10]) [nM]
CC[C@H](C)[C@H](NC(=O)[C@H](CCCN)NC(=O)[C@H](CC(=O)O)NC(=O)[C@H](CC(C)C)NC(=O)[C@](C)(CC(C)C)NC(=O)[C@@H](NC(=O)[C@](C)(CO)NC(=O)[C@H](Cc1ccncc1)NC(=O)[C@H](CC(=O)O)NC(=O)[C@H](CO)NC(=O)[C@@H](NC(=O)[C@](C)(Cc1ccccc1F)NC(=O)[C@@H](NC(=O)CNC(=O)[C@H](CCC(=O)O)NC(=O)C(C)(C)NC(=O)[C@@H](N)Cc1ccc(O)cc1)[C@@H](C)O)[C@@H](C)O)[C@@H](C)CC)C(=O)N[C@@H](C)C(=O)N[C@@H](CCC(N)=O)C(=O)NC(C)(C)C(=O)N[C@@H](CCCCNC(=O)COCCOCCNC(=O)COCCOCCNC(=O)CC[C@H](NC(=O)CCCCCCCCCCCCC(=O)O)C(=O)O)C(=O)N[C@@H](Cc1ccccc1)C(=O)N[C@H](C(=O)N[C@H](CCC(=O)O)C(=O)N[C@@](C)(Cc1ccc(O)cc1)C(=O)N[C@@H](CC(C)C)C(=O)N[C@H](C(=O)N[C@@H](CCCCNC(=O)COCCOCCNC(=O)COCCOCCNC(=O)CC[C@H](NC(=O)CCCCCCCCCCCCC(=O)O)C(=O)O)C(=O)NCC(=O)NCC(=O)N1CCC[C@H]1C(=O)N[C@@H](CO)C(=O)N[C@@H](CO)C(=O)NCC(=O)N[C@@H](C)C(=O)N1CCC[C@H]1C(=O)N1CCC[C@H]1C(=O)N1CCC[C@H]1C(=O)N[C@@H](CO)C(N)=O)[C@@H](C)CC)[C@@H](C)CC [Example 217]	> 9950	> 9950	118	88	0.436	7.84	62.7	95.5	0.0309	–	–	–	–	–	–	–	–	–	–	–
CC[C@H](C)[C@H](NC(=O)[C@H](CCCN)NC(=O)[C@H](CC(=O)O)NC(=O)[C@H](CC(C)C)NC(=O)[C@](C)(CC(C)C)NC(=O)[C@@H](NC(=O)C(C)(C)NC(=O)[C@H](Cc1ccncc1)NC(=O)[C@H](CC(=O)O)NC(=O)[C@H](CO)NC(=O)[C@@H](NC(=O)[C@](C)(Cc1ccccc1F)NC(=O)[C@@H](NC(=O)CNC(=O)[C@H](CCC(=O)O)NC(=O)C(C)(C)NC(=O)[C@@H](N)Cc1ccc(O)cc1)[C@@H](C)O)[C@@H](C)O)[C@@H](C)CC)C(=O)N[C@@H](C)C(=O)N[C@@H](CCC(N)=O)C(=O)NC(C)(C)C(=O)N[C@@H](CCCCNC(=O)COCCOCCNC(=O)COCCOCCNC(=O)CC[C@H](NC(=O)CCCCCCCCCCCCC(=O)O)C(=O)O)C(=O)N[C@@H](Cc1ccccc1)C(=O)N[C@H](C(=O)N[C@@H](CCCCNC(=O)COCCOCCNC(=O)COCCOCCNC(=O)CC[C@H](NC(=O)CCCCCCCCCCCCC(=O)O)C(=O)O)C(=O)N[C@@](C)(Cc1ccc(O)cc1)C(=O)N[C@@H](CC(C)C)C(=O)N[C@H](C(=O)N[C@@H](CCC(=O)O)C(=O)NCC(=O)NCC(=O)N1CCC[C@H]1C(=O)N[C@@H](CO)C(=O)N[C@@H](CO)C(=O)NCC(=O)N[C@@H](C)C(=O)N1CCC[C@H]1C(=O)N1CCC[C@H]1C(=O)N1CCC[C@H]1C(=O)N[C@@H](CO)C(N)=O)[C@@H](C)CC)[C@@H](C)CC [Example 218] (H-Y[Aib]EGT[αMePhe(2-F)]TSD[4Pal][Aib]I[αMeL]LD[Orn]IAQ[Aib]K([AEEA-AEEA-γGlu-C14 diacid])FIK([AEEA-AEEA-γGlu-C14 diacid])[αMeY]LIEGGPSSGAPPPS-NH2; N-terminus assumed)	–	–	–	–	–	–	–	–	–	> 9950	> 9950	121	92.6	36.6	0.714	95.9	90.2	3.27	0.0515	–
CC[C@H](C)[C@H](NC(=O)[C@H](CCCN)NC(=O)[C@H](CC(=O)O)NC(=O)[C@H](CC(C)C)NC(=O)[C@](C)(CC(C)C)NC(=O)[C@@H](NC(=O)C(C)(C)NC(=O)[C@H](Cc1ccncc1)NC(=O)[C@H](CC(=O)O)NC(=O)[C@H](CO)NC(=O)[C@@H](NC(=O)[C@](C)(Cc1ccccc1F)NC(=O)[C@@H](NC(=O)CNC(=O)[C@H](CCC(=O)O)NC(=O)C(C)(C)NC(=O)[C@@H](N)Cc1ccc(O)cc1)[C@@H](C)O)[C@@H](C)O)[C@@H](C)CC)C(=O)N[C@@H](C)C(=O)N[C@@H](CCC(N)=O)C(=O)NC(C)(C)C(=O)N[C@@H](CCCCNC(=O)COCCOCCNC(=O)COCCOCCNC(=O)CC[C@H](NC(=O)CCCCCCCCCCCCC(=O)O)C(=O)O)C(=O)N[C@@H](Cc1ccccc1)C(=O)N[C@H](C(=O)N[C@H](CCC(=O)O)C(=O)N[C@@](C)(Cc1ccc(O)cc1)C(=O)N[C@@H](CC(C)C)C(=O)N[C@H](C(=O)N[C@@H](CCCCNC(=O)COCCOCCNC(=O)COCCOCCNC(=O)CC[C@H](NC(=O)CCCCCCCCCCCCC(=O)O)C(=O)O)C(=O)NCC(=O)NCC(=O)N1CCC[C@H]1C(=O)N[C@@H](CO)C(=O)N[C@@H](CO)C(=O)NCC(=O)N[C@@H](C)C(=O)N1CCC[C@H]1C(=O)N1CCC[C@H]1C(=O)N1CCC[C@H]1C(=O)N[C@@H](CO)C(N)=O)[C@@H](C)CC)[C@@H](C)CC [Example 220]	> 9950	> 9950	110	87.6	0.535	11.6	83.5	91.6	0.0237	–	–	–	–	–	–	–	–	–	–	150
CC[C@H](C)[C@H](NC(=O)[C@H](CC(C)C)NC(=O)[C@](C)(Cc1ccc(O)cc1)NC(=O)[C@@H](CCC(=O)O)NC(=O)[C@@H](NC(=O)[C@H](Cc1ccccc1)NC(=O)[C@H](CCC(=O)O)NC(=O)C(C)(C)NC(=O)[C@H](CCC(N)=O)NC(=O)[C@H](C)NC(=O)[C@H](CCCCNC(=O)COCCOCCNC(=O)COCCOCCNC(=O)CCCCCCCCCCCCC(=O)O)NC(=O)[C@H](CCCN)NC(=O)[C@H](CC(=O)O)NC(=O)[C@H](CC(C)C)NC(=O)[C@](C)(CC(C)C)NC(=O)[C@@H](NC(=O)[C@H](CO)NC(=O)[C@H](Cc1ccncc1)NC(=O)[C@H](CC(=O)O)NC(=O)[C@H](CO)NC(=O)[C@@H](NC(=O)[C@](C)(Cc1ccccc1F)NC(=O)[C@@H](NC(=O)CNC(=O)[C@H](CCC(=O)O)NC(=O)C(C)(C)NC(=O)[C@@H](N)Cc1ccc(O)cc1)[C@@H](C)O)[C@@H](C)O)[C@@H](C)CC)[C@@H](C)CC)C(=O)N[C@@H](CCC(=O)O)C(=O)NCC(=O)NCC(=O)N1CCC[C@H]1C(=O)N[C@@H](CO)C(=O)N[C@@H](CO)C(=O)NCC(=O)N[C@@H](C)C(=O)N1CCC[C@H]1C(=O)N1CCC[C@H]1C(=O)N1CCC[C@H]1C(=O)N[C@@H](CO)C(=O)N[C@@H](CCCCNC(=O)COCCOCCNC(=O)COCCOCCNC(=O)CCCCCCCCCCCCC(=O)O)C(N)=O [Example 221]	> 9950	> 9950	92.3	83	–	–	67.4	81.8	0.0279	–	–	–	–	–	–	–	–	–	–	17.9
